Data from the supplement of paper PMC4862054.

Test system: MDA-MB-436
Test: normalised viability (% of control), CellTiter-Blue; higher = more viable cells (100 = DMSO, 0 = benzethonium chloride kill control)
Conditions: incubation time: 72 h
In short: (§1)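 Seeded at 20 µl suspension per well onto compound-loaded 384-well plates, breast cancer cell lines were incubated 72 h. CellTiter-Blue fluorescence at 560/590 nm was then read, with each plate normalised to vehicle (100) and a positive kill control (0). Normalised viability is reported at a single listed concentration of the series.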

In order of rising normalised viability:
1. COC(=O)C[C@](O)(CCCC(C)(C)O)C(=O)O[C@@H]1C(OC)=C[C@]23CCCN2CCc2cc4c(cc2[C@H]13)OCO4 [Omacetaxine] (1 nM)  91.1%
2. C[C@@H]1C=C2C(=O)O[C@@H]3CC[C@H](C1)[C@]23O [Galiellalactone] (5 nM)  94.6%
3. CC(C)(C)c1cc(NC(=O)Nc2ccc(-c3cn4c(n3)sc3cc(OCCN5CCOCC5)ccc34)cc2)no1 [Quizartinib] (0.1 nM)  98.1%
4. COc1ccc(C2=N[C@@H](c3ccc(Cl)cc3)[C@@H](c3ccc(Cl)cc3)N2C(=O)N2CCNC(=O)C2)c(OC(C)C)c1 [Nutlin-3] (1 nM)  101%
5. CC(C)C[C@H](NC(=O)[C@H](Cc1ccccc1)NC(=O)c1cnccn1)B(O)O [Bortezomib] (0.1 nM)  103%
6. Cn1c(=O)c(F)c(Nc2ccc(I)cc2F)c2c(=O)n(C[C@@H](O)CO)cnc21 [TAK-733] (0.1 nM)  105%

Test system: DU-4475
Test: as above
Conditions: incubation time: 72 h
In short: as §1

In order of rising normalised viability:
1. COc1ccc(C2=N[C@@H](c3ccc(Cl)cc3)[C@@H](c3ccc(Cl)cc3)N2C(=O)N2CCNC(=O)C2)c(OC(C)C)c1 [Nutlin-3] (1 nM)  82.5%
2. CCS(=O)(=O)c1cccc(-c2cc(C(=O)NC3CCN(C)CC3)c(C)c3[nH]c4ncc(C)cc4c23)c1 [TAK-901] (0.1 nM)  85.1%
3. COC(=O)C[C@](O)(CCCC(C)(C)O)C(=O)O[C@@H]1C(OC)=C[C@]23CCCN2CCc2cc4c(cc2[C@H]13)OCO4 [Omacetaxine] (1 nM)  93.6%
4. C#Cc1cccc(Nc2ncnc3cc(OC)c(OCCCCCCC(=O)NO)cc23)c1 [CUDC-101] (1 nM)  97.5%
5. C[C@@H]1C=C2C(=O)O[C@@H]3CC[C@H](C1)[C@]23O [Galiellalactone] (5 nM)  104%
6. Cn1c(=O)c(F)c(Nc2ccc(I)cc2F)c2c(=O)n(C[C@@H](O)CO)cnc21 [TAK-733] (0.1 nM)  112%
7. CC(C)(C)c1cc(NC(=O)Nc2ccc(-c3cn4c(n3)sc3cc(OCCN5CCOCC5)ccc34)cc2)no1 [Quizartinib] (0.1 nM)  117%
8. CC(C)C[C@H](NC(=O)[C@H](Cc1ccccc1)NC(=O)c1cnccn1)B(O)O [Bortezomib] (0.1 nM)  129%

Test system: CAL-51
Test: as above
Conditions: incubation time: 72 h
In short: as §1

In order of falling normalised viability:
1. C#Cc1cccc(Nc2ncnc3cc(OC)c(OCCCCCCC(=O)NO)cc23)c1 [CUDC-101] (1 nM)  111%
2. C[C@@H]1C=C2C(=O)O[C@@H]3CC[C@H](C1)[C@]23O [Galiellalactone] (5 nM)  106%
3. CC(C)(C)c1cc(NC(=O)Nc2ccc(-c3cn4c(n3)sc3cc(OCCN5CCOCC5)ccc34)cc2)no1 [Quizartinib] (0.1 nM)  103%
4. Cn1c(=O)c(F)c(Nc2ccc(I)cc2F)c2c(=O)n(C[C@@H](O)CO)cnc21 [TAK-733] (0.1 nM)  101%
5. CC(C)C[C@H](NC(=O)[C@H](Cc1ccccc1)NC(=O)c1cnccn1)B(O)O [Bortezomib] (0.1 nM)  97.3%
6. COc1ccc(C2=N[C@@H](c3ccc(Cl)cc3)[C@@H](c3ccc(Cl)cc3)N2C(=O)N2CCNC(=O)C2)c(OC(C)C)c1 [Nutlin-3] (1 nM)  96.3%
7. COC(=O)C[C@](O)(CCCC(C)(C)O)C(=O)O[C@@H]1C(OC)=C[C@]23CCCN2CCc2cc4c(cc2[C@H]13)OCO4 [Omacetaxine] (1 nM)  96.3%
8. CCS(=O)(=O)c1cccc(-c2cc(C(=O)NC3CCN(C)CC3)c(C)c3[nH]c4ncc(C)cc4c23)c1 [TAK-901] (0.1 nM)  90.9%

Test system: HDQ-P1
Test: as above
Conditions: incubation time: 72 h
In short: as §1

In order of rising normalised viability:
1. CC(C)(C)c1cc(NC(=O)Nc2ccc(-c3cn4c(n3)sc3cc(OCCN5CCOCC5)ccc34)cc2)no1 [Quizartinib] (0.1 nM)  74.7%
2. COC(=O)C[C@](O)(CCCC(C)(C)O)C(=O)O[C@@H]1C(OC)=C[C@]23CCCN2CCc2cc4c(cc2[C@H]13)OCO4 [Omacetaxine] (1 nM)  84.7%
3. C#Cc1cccc(Nc2ncnc3cc(OC)c(OCCCCCCC(=O)NO)cc23)c1 [CUDC-101] (1 nM)  85.7%
4. COc1ccc(C2=N[C@@H](c3ccc(Cl)cc3)[C@@H](c3ccc(Cl)cc3)N2C(=O)N2CCNC(=O)C2)c(OC(C)C)c1 [Nutlin-3] (1 nM)  89%
5. CC(C)C[C@H](NC(=O)[C@H](Cc1ccccc1)NC(=O)c1cnccn1)B(O)O [Bortezomib] (0.1 nM)  92.2%
6. CCS(=O)(=O)c1cccc(-c2cc(C(=O)NC3CCN(C)CC3)c(C)c3[nH]c4ncc(C)cc4c23)c1 [TAK-901] (0.1 nM)  111%
7. Cn1c(=O)c(F)c(Nc2ccc(I)cc2F)c2c(=O)n(C[C@@H](O)CO)cnc21 [TAK-733] (0.1 nM)  120%
8. C[C@@H]1C=C2C(=O)O[C@@H]3CC[C@H](C1)[C@]23O [Galiellalactone] (5 nM)  120%

Test system: SK-BR-3
Test: as above
Conditions: incubation time: 72 h
In short: as §1

In order of rising normalised viability:
1. C#Cc1cccc(Nc2ncnc3cc(OC)c(OCCCCCCC(=O)NO)cc23)c1 [CUDC-101] (1 nM)  82.3%
2. CC(C)C[C@H](NC(=O)[C@H](Cc1ccccc1)NC(=O)c1cnccn1)B(O)O [Bortezomib] (0.1 nM)  88.8%
3. CC(C)(C)c1cc(NC(=O)Nc2ccc(-c3cn4c(n3)sc3cc(OCCN5CCOCC5)ccc34)cc2)no1 [Quizartinib] (0.1 nM)  90.9%
4. CCS(=O)(=O)c1cccc(-c2cc(C(=O)NC3CCN(C)CC3)c(C)c3[nH]c4ncc(C)cc4c23)c1 [TAK-901] (0.1 nM)  92%
5. COc1ccc(C2=N[C@@H](c3ccc(Cl)cc3)[C@@H](c3ccc(Cl)cc3)N2C(=O)N2CCNC(=O)C2)c(OC(C)C)c1 [Nutlin-3] (1 nM)  95.6%
6. COC(=O)C[C@](O)(CCCC(C)(C)O)C(=O)O[C@@H]1C(OC)=C[C@]23CCCN2CCc2cc4c(cc2[C@H]13)OCO4 [Omacetaxine] (1 nM)  97.3%
7. Cn1c(=O)c(F)c(Nc2ccc(I)cc2F)c2c(=O)n(C[C@@H](O)CO)cnc21 [TAK-733] (0.1 nM)  97.9%
